Data reported in patent US9884874B2, “Bromodomain-inhibiting compounds and pharmaceutical composition comprising same for preventing or treating a cancer” (KAINOS MEDICINE, INC., priority 2014, dated 2018).

Assays:
OPM-2 (multiple myeloma) = assay: Anti-proliferative activity, OPM-2; assay type: cell-based; conditions: Homo sapiens, read-out: Cell proliferation, IC50
[1] = tested on: MV4-11 (human leukemia cell line); assay: Anti-proliferative activity test (CellTiter-Glo), MV4-11; assay type: cell-based; conditions: second value of LnCAP/MV4-11 cell, read-out: Cell proliferation IC50 (MV4-11)
Experimental: IC50 (uM) of the compounds obtained in Examples 1 to 18 against hematological cancer cells and solid tumors was measured for identifying anti-proliferative activities.
A human prostatic adenocarcinoma cell line, LnCAP (ATCC®, CRL-1740) and human leukemia cell line MV4-11 (ATCC®, CRL-9591) were used to test the degrees of the compounds 1 to 18 in inhibiting the cancer cell growth. The testing cell concentration was adjusted to 6.7×10^3 cells/ml with a culture medium supplemented with 10% FBS, in the temperature of 37° C., 5% CO2 and 95% humidity. Culture media and FBS were purchased from GIBCO. 90 μL of cell suspensions thus obtained was added to two 96-well plates with the final cell density of 600 cells/well, followed by addition of 10 μL of culture medium to each well of plate. The plates were incubated overnight in a humidified incubator at 37° C. with 5% CO2.
Compounds 1 to 18 were each dissolved with dimethylsulfoxide (DMSO) or phosphate buffer solution (PBS) as a stock solution, and 200× solutions of test compound (2 mM) using DMSO were prepared. Then, the DMSO solution thus obtained was diluted 20-fold with culture medium or PBS to obtain 10× working solution. 10 μL of 10× working solution (drug solution) was dispensed to each well (triplicate for each concentration). The final concentration of DMSO in culture medium was 0.5% [v/v].
Cell viability was determined using CellTiter-Glo® (CTG) assay. 100 μL of CellTiter-Glo® was added to the equal volume of the cultured cells to read luminescence in EnVision Multi Label Reader.

[2] = Mouse liver microsomal stability/clearance; assay type: in vitro ADME; conditions: mouse liver microsomes; second value of Human/Mouse cell; read-out: Liver microsomal clearance (Mouse)
Experimental: Human and mouse liver microsomal clearance assays were carried out in CROWN Biosciences (Taicang, China). The human liver microsomes (Cat No. X008067, Lot No. KQB) and mouse liver microsomes (Cat No. M1000, Lot No. 1210302) were purchased from Celsis and Xenotech, respectively.
5 μL of test compound stock solution was diluted with 495 μL of 1:1 Methanol/Water (final concentration: 100 μM, 50% MeOH) and combined with 534 μL of the respective liver microsome solution (final concentration: 1.111 μM, 0.555% MeOH). The final concentration of the liver microsome solution was 0.7 mg protein/mL.
Incubations of the liver microsome solutions were performed in a 96 well plate at 37° C. 90 μL of the liver microsome solutions were added to Blank, and 90 μL of working solution of the test compound was added to all plates except the Blank.
All plates thus obtained were warmed in water bath at 37° C. for 10 min, and 10 μL of NADPH co-factor solution comprising 42 mg of β-nicotinamide adenine dinucleotide phosphate (Sigma Cat. No. N0505 Lot 020M7009V), 84 mg of isocitric acid (Sigma Cat. No. 11252 Lot 119K1099) and 0.478 mL of isocitric dehydrogenase (Sigma Cat. No. 12002 Lot 086K7055, 15 units/mg protein, warmed in water bath at 37° C. for 5 min was added to the plates. The resulting plates were incubated at 37° C. in the following order: T60 (The test compounds were incubated with the liver microsomal solution and NADPH for 60 min at 37° C.), T30 (such as for 30 min.), and T10 (such as for 10 min.). 300 μL of a cold (4° C.) stop solution (acetonitrile (ACN) including 500 nM of tolbutamide as internal standard) and 10 μL of NADPH co-factor solution to starting plate (T0: 100% of the parent compound without any reaction) were added to the plates. The reaction was stopped by adding 300 μL of the cold (4° C.) stop solution to the other plates in the following order: T10 first, then T30 and T60.
The samples were centrifuged at 4,000 rpm for 20 min and transferred to Bioanalytical Services for liquid chromatography-mass spectrometry (LC-MS)/MS (Waters UPLC/API 4000, 10 μL injection) analysis.

[3] = tested on: NCI-H526 (variant small cell lung cancer); assay: Anti-proliferative activity, NCI-H526; assay type: cell-based; conditions: Homo sapiens, read-out: Cell proliferation, IC50

COc1ccc2c(c1)C(c1ccc(Cl)cc1)=N[C@@H](COS(C)(=O)=O)c1nnc(C)n1-2 [Compound 1, (R)-(6-(4-chlorophenyl)-8-methoxy-1-methyl-4H-benzo[f]-[1,2,4]triazolo[4,3-a][1,4]diazepin-4-yl)methyl methanesulfonate]
IC50 (OPM-2 (multiple myeloma)): 1450 nM | IC50 [1]: 310 nM | microsomal CLint at 1 µM [2]: 4.7 µL/min/mg | IC50 [3]: 2620 nM
